Results on 6 molecules are retold here after PMC12470716, “Inhibitory Effect of Fucoidan Analogs on Highly Metastatic Gastric Cancer Cells via Galectin-4 Inhibition” (International Journal of Molecular Sciences, 2025).

As a reminder, the IC50 is the midpoint of a concentration-inhibition curve.

In assay [1] the target is T1, galectin-4 (Homo sapiens, UniProt P56470).
T1 construct: gene LGALS4; full-length, His-tagged (pQE-9), E. coli M15[pREP4], TALON purified; two CRDs (N-CRD and C-CRD), approx. 36 kDa; amine-coupled on CM5 chip for SPR
T1 sequence (P56470 1-323): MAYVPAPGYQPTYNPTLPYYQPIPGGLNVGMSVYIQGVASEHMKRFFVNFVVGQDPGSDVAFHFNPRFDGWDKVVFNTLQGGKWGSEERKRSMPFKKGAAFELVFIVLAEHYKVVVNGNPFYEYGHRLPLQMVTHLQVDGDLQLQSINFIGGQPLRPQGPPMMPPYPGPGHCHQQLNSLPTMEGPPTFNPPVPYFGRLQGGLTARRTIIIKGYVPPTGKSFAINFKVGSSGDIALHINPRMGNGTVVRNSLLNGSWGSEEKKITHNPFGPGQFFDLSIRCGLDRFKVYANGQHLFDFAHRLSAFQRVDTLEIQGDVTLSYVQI
Description: SPR (Biacore X100, galectin-4 immobilised on CM5), multi cycle. Particulars: 25 °C, HBS-EP pH 7.4; LNT 31.3–500 μM; read-out: equilibrium binding constant. (SPR reads the build-up and loss of mass on a sensor chip optically.)

Assay [2] deals with NUGC4 WT. Description: cells. Further details: ATP-based cell viability assay, growth inhibition of wild-type NUGC4 in FCS-free medium, 3 days. The note with it: Homo sapiens, NUGC-4, 72 h; read-out: Growth inhibition (IC50) NUGC4 WT. On the procedure:
For growth inhibition experiments, MKN45 or NUGC4 cells were grown in 96-well plates at 5 × 10^3/well on the previous day, and the cell supernatant was discarded and washed once with phosphate-buffered saline (PBS). Fucoidan or fucoidan analog solutions diluted in FCS-free Advanced RPMI 1640 medium were added to the cells and cultured for another 3 days. Cell proliferation was measured using the ATP-based cell viability assay. Fucoidan analogs inhibited the proliferative ability of NUGC4 cells, but minimal inhibitory activity was observed against KO cells (Figure 3B).

Assay [3] deals with MKN45. Put plainly: cells. Further details: ATP-based cell viability assay, growth inhibition of MKN45 in FCS-free medium, 3 days. Particulars: Homo sapiens, MKN-45, 72 h; read-out: Growth inhibition (IC50) MKN45. On the procedure:
For growth inhibition experiments, MKN45 or NUGC4 cells were grown in 96-well plates at 5 × 10^3/well on the previous day, and the cell supernatant was discarded and washed once with phosphate-buffered saline (PBS). Fucoidan or fucoidan analog solutions diluted in FCS-free Advanced RPMI 1640 medium were added to the cells and cultured for another 3 days. Cell proliferation was measured using the ATP-based cell viability assay. We first measured the inhibitory activities of all synthesized fucoidan analogs 1–14 to narrow down the candidate. […] Next, the inhibitory activity of fucoidan analogs on the proliferation of MKN45 cells was measured (Figure 3A). […] From the viewpoint of growth and binding inhibitory activities, we narrowed it down to 2, 3, 10, 12, and 14 for further investigation.

With `CC(=O)N[C@H]1[C@H](O[C@H]2[C@@H](O)[C@@H](CO)O[C@@H](O[C@H]3[C@H](O)[C@@H](O)C(O)O[C@@H]3CO)[C@@H]2O)O[C@H](CO)[C@@H](O)[C@@H]1O[C@@H]1O[C@H](CO)[C@H](O)[C@H](O)[C@H]1O` (some centres unmarked) [LNT], the Kd in assay [1] turned out to be 200 µM.

For `CCCCCCCCOC1O[C@@H](C)[C@@H](O)[C@@H](O[C@@H]2O[C@@H](C)[C@@H](O)[C@@H](O[C@@H]3O[C@@H](C)[C@@H](O)[C@@H](O[C@@H]4O[C@@H](C)[C@@H](O)[C@@H](OS(=O)(=O)O)[C@@H]4OS(=O)(=O)O)[C@@H]3OS(=O)(=O)O)[C@@H]2OS(=O)(=O)O)[C@@H]1OS(=O)(=O)O` (some centres unmarked) [compound 3, fucoidan analog 3], the IC50 in assay [2] was more than 50 µM; in assay [3], more than 100 µM. In the case of `CCCCCCCCOC1OC(C)C(O)C(OC2OC(C)C(O)C(OC3OC(C)C(O)C(OC4OC(C)C(O)C(O)C4O)C3O)C2O)C1O` (centres unmarked) [compound 4, 4], the IC50 in assay [3] is more than 100 µM.

Take `CCCCCCCCO[C@H]1O[C@@H](C)[C@@H](O[C@@H]2O[C@@H](C)[C@@H](O[C@@H]3O[C@@H](C)[C@@H](O[C@@H]4O[C@@H](C)[C@@H](OS(=O)(=O)O)[C@@H](OS(=O)(=O)O)[C@@H]4OS(=O)(=O)O)[C@@H](OS(=O)(=O)O)[C@@H]3OS(=O)(=O)O)[C@@H](OS(=O)(=O)O)[C@@H]2OS(=O)(=O)O)[C@@H](OS(=O)(=O)O)[C@@H]1OS(=O)(=O)O` [compound 10, fucoidan analog 10]: the IC50 in assay [2] is less than 50 µM. Regarding `CCCCCCCCO[C@H]1O[C@@H](C)[C@@H](O[C@@H]2O[C@@H](C)[C@@H](O[C@@H]3O[C@@H](C)[C@@H](O[C@@H]4O[C@@H](C)[C@@H](O)[C@@H](O)[C@@H]4OS(=O)(=O)O)[C@@H](O)[C@@H]3OS(=O)(=O)O)[C@@H](O)[C@@H]2OS(=O)(=O)O)[C@@H](O)[C@@H]1OS(=O)(=O)O` [compound 12, fucoidan analog 12], the IC50 in assay [2] was more than 50 µM; in assay [3], more than 100 µM. Consider `CCCCCCCCOC1OC(C)C(OC2OC(C)C(OC3OC(C)C(OC4OC(C)C(O)C(O)C4O)C(O)C3O)C(O)C2O)C(O)C1O` (centres unmarked) [compound 13, 13], for which, in assay [3], the IC50 is more than 100 µM.
